The target in experiment [1] is Acetylcholinesterase (Homo sapiens, UniProt P22303). Format: functional.
The target of experiment [2] is T1, Alpha-2A adrenergic receptor (Homo sapiens, UniProt P08913).
T1 sequence (P08913 whole entry): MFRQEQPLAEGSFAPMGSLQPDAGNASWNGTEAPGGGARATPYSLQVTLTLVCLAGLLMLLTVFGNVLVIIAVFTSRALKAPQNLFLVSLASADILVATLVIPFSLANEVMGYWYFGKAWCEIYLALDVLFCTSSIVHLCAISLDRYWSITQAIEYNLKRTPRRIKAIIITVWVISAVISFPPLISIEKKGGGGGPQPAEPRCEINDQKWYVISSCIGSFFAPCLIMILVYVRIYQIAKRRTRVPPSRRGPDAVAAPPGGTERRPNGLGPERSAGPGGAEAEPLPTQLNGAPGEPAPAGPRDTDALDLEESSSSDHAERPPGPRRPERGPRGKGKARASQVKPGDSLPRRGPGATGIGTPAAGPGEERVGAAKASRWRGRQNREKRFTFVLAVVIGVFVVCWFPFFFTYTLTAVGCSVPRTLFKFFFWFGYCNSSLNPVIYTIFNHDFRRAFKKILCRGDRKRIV

Experiment [3] has as its target D(1A) dopamine receptor (Homo sapiens, UniProt P21728).
The target in experiment [4] is T2, Gamma-aminobutyric acid receptor subunit alpha-1 (Rattus norvegicus, UniProt P62813).
T2 sequence (P62813 whole entry): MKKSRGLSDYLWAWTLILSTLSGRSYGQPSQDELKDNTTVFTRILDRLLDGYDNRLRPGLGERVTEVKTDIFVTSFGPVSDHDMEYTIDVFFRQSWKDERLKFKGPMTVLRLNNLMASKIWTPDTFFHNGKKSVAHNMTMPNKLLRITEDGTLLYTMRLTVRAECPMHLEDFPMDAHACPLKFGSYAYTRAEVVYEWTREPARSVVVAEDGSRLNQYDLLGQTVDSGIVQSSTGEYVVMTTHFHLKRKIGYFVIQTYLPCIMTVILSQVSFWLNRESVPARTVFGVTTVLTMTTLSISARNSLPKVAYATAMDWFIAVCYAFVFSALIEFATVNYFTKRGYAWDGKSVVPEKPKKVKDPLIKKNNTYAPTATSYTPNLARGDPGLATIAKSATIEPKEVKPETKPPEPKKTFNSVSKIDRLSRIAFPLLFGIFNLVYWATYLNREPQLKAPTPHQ
Experiment [5] concerns the target T3, Amine oxidase [flavin-containing] A (Homo sapiens, UniProt P21397).
T3 sequence (P21397 whole entry): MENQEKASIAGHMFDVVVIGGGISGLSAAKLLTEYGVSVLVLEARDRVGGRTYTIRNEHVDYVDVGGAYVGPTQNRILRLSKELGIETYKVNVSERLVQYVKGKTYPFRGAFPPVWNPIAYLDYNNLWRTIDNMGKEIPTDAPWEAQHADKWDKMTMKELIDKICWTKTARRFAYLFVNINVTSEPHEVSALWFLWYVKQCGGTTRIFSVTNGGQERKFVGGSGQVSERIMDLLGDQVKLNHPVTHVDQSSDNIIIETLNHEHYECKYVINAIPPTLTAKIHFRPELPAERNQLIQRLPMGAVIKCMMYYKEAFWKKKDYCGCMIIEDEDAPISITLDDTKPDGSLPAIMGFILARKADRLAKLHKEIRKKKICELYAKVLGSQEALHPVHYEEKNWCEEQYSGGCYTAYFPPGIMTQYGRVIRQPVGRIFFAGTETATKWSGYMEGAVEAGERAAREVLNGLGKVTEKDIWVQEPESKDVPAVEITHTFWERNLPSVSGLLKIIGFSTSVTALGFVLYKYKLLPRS
In kind it is functional.

The target in experiment [6] is Sodium-dependent noradrenaline transporter (Homo sapiens, UniProt P23975).
Chain of Sodium-dependent noradrenaline transporter (P23975 whole entry): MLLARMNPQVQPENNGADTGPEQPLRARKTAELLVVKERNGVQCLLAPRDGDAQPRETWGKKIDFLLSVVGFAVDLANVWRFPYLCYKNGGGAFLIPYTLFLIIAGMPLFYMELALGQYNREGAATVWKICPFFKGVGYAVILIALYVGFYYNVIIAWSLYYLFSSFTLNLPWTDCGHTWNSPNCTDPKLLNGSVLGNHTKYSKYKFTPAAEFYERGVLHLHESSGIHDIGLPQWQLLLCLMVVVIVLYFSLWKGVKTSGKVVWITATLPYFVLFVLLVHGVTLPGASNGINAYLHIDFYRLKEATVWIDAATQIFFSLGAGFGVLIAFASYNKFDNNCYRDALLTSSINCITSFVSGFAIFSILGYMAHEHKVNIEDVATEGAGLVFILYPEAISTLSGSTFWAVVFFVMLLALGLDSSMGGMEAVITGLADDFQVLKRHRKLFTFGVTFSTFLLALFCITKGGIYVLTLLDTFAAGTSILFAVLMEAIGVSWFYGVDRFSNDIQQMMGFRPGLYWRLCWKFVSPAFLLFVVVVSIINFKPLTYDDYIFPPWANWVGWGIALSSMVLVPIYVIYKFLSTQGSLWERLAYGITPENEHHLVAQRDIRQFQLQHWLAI
The target of experiment [7] is Sodium-dependent dopamine transporter (Homo sapiens, UniProt Q01959).
Chain of Sodium-dependent dopamine transporter (Q01959 whole entry): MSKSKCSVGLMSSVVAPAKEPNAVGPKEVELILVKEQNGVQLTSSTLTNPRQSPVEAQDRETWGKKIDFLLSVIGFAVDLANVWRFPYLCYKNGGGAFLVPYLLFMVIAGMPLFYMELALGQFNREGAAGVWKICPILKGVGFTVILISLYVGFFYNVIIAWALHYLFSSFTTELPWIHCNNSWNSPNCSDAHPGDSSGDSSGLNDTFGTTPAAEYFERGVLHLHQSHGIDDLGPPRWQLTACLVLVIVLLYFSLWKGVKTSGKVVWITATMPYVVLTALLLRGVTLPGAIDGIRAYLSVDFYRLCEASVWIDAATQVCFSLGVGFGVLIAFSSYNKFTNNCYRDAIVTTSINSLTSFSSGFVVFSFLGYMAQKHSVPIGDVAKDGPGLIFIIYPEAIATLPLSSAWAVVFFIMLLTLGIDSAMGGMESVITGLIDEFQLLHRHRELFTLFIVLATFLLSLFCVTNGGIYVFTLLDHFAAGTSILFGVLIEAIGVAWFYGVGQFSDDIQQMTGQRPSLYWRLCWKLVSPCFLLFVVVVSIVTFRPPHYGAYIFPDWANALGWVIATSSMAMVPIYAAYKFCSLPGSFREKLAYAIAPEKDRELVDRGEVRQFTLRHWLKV
Experiment [8] has as its target D(3) dopamine receptor (Homo sapiens, UniProt P35462).
The target of experiment [9] is T2, Gamma-aminobutyric acid receptor subunit alpha-1. This is another data set of the same source.
Experiment [10] concerns the target T4, Neuropeptide Y receptor type 1 (Homo sapiens, UniProt P25929).
T4 sequence (P25929 whole entry): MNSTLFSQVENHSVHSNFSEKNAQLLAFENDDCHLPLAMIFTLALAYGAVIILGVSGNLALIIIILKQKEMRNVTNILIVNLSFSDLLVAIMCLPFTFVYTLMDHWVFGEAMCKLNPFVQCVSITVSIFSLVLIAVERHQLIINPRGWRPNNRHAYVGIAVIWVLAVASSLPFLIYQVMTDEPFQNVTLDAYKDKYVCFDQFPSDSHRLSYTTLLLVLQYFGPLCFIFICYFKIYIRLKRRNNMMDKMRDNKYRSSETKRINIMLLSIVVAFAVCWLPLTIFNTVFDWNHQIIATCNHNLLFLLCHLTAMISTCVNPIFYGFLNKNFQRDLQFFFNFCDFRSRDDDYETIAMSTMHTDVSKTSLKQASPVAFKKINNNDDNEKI

Experiment [11] concerns the target Delta-type opioid receptor (Homo sapiens, UniProt P41143).
Also: assay procedure not described here.

Chain of Delta-type opioid receptor (P41143 whole entry): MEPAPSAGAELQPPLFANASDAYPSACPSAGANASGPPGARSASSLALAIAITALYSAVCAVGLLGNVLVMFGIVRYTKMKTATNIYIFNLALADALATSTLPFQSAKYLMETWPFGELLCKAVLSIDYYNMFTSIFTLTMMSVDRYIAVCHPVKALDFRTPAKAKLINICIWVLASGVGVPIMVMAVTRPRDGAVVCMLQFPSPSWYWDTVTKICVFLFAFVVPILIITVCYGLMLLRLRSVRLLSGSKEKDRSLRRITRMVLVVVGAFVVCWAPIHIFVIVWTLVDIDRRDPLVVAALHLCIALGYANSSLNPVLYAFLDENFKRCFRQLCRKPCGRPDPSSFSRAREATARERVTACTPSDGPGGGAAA
Chain of D(1A) dopamine receptor (P21728 whole entry): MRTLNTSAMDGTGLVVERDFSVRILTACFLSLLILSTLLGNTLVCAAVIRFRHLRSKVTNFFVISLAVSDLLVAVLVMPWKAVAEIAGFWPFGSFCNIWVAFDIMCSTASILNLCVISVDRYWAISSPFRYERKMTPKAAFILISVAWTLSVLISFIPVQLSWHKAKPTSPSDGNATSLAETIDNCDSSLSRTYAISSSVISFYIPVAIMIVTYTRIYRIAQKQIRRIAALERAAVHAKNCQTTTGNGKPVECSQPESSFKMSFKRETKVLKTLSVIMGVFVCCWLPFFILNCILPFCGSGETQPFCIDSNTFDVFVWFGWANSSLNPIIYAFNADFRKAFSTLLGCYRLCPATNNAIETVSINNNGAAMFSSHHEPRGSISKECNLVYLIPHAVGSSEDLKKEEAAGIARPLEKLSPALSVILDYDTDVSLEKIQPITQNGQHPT
Chain of D(3) dopamine receptor (P35462 whole entry): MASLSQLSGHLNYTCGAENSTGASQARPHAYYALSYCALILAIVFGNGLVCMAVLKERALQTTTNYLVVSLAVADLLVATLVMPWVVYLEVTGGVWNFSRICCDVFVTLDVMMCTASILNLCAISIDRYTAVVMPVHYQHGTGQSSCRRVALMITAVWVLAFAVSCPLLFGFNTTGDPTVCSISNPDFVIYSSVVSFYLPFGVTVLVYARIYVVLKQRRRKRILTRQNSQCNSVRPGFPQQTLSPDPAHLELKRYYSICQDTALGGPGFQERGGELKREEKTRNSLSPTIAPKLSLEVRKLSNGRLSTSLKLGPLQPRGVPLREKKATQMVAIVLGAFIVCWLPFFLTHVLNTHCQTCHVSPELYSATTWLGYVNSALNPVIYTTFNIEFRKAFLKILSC
Chain of Acetylcholinesterase (P22303 whole entry): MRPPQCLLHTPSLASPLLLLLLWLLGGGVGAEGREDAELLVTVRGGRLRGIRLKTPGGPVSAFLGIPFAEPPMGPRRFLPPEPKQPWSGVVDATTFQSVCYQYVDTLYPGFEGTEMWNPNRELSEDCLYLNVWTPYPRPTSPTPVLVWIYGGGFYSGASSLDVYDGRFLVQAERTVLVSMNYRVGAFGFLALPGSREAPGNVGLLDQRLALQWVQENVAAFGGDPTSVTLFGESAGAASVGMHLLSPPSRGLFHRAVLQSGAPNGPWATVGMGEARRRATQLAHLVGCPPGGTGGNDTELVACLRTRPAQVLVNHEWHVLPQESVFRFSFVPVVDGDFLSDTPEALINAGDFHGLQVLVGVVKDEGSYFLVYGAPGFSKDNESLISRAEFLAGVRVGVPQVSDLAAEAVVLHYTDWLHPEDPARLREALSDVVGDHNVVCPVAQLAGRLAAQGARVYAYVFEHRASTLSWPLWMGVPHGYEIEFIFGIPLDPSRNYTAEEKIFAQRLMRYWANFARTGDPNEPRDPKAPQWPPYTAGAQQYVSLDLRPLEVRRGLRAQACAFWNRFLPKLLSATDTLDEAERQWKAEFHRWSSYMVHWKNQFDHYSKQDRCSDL

As to `O=c1[nH]c(=O)n(C2CCCO2)cc1F` (stereo not drawn) [TEGAFUR], the AC50 in experiment [1], in experiment [2], in [3], in experiment [4], in [5] and in experiment [6] was over 30 µM each time. The half-maximal activity concentration (AC50) – broadly, the midpoint of the concentration-response curve, whichever way the signal moves – in experiment [7] is over 30 µM.

As to `CCN(CC)CCNc1ccc(CO)c2sc3ccccc3c(=O)c12` [HYCANTHONE], the half-maximal activity concentration (AC50) in [1] was over 30 µM; in experiment [2] it was 1.73 µM; in experiment [3], over 30 µM; in experiment [8] it was 19.5 µM; in [4] it was over 30 µM; in experiment [5] it was over 30 µM. The AC50 in experiment [6] was found to be 11.9 µM; in experiment [7], 12.5 µM.

For the molecule `CCN(CC)CCc1nc(-c2ccccc2)no1` [OXOLAMINE], the AC50 in experiment [1], in [2], in experiment [3], in experiment [4], in experiment [5] and in [6] was over 30 µM in each case. In experiment [7], the AC50 was over 30 µM.

As to `COc1cc2nc(N3CCN(C(=O)c4ccco4)CC3)nc(N)c2cc1OC` [PRAZOSIN], the AC50 was 23.7 µM in experiment [1]; 8.64 µM in experiment [3]; over 30 µM in experiment [8]; over 10 µM in experiment [9]; over 30 µM in [4]; over 30 µM in experiment [5]. In addition, the AC50 in [10] is over 30 µM; in [11] it was over 10 µM; in [6], over 30 µM; in [7], 30 µM.

Turning to `COc1ccccc1N1CCN(CC(O)COc2cccc3ccccc23)CC1` (stereo not drawn) [NAFTOPIDIL], the half-maximal activity concentration (AC50) in experiment [1] was 26.1 µM; in experiment [2], 0.29 µM; in experiment [3], 2.08 µM; in [8] it was 0.04 µM; in [9] it was over 30 µM; in experiment [4], over 30 µM. Moreover, the AC50 in experiment [5] was over 30 µM; in [11] it was 12 µM; in experiment [6], 6.01 µM; in experiment [7] it was 4.46 µM.

Consider `NC(=O)C[C@H](N)C(=O)O` [ASPARAGINE], for which the AC50 in experiment [1], in experiment [2], in [3], in experiment [8], in experiment [4] and in experiment [5] was over 30 µM in each case. Also, the half-maximal activity concentration (AC50) in experiment [6] and in experiment [7] was over 30 µM in each case.

In the case of `CN(C)CCC=C1c2ccccc2C=Cc2ccccc21` [CYCLOBENZAPRINE], the AC50 in experiment [9] was over 10 µM; in experiment [10] it was over 30 µM; in [11], over 30 µM.

As to `Clc1cc(Cl)c(OCC#CI)cc1Cl` [HALOPROGIN], the AC50 in experiment [1] is over 30 µM; in experiment [2] it was 17.7 µM; in experiment [8], 1.16 µM; in experiment [4], over 30 µM; in experiment [5] it was over 30 µM; in [6] it was 5.12 µM. The same molecule yielded an AC50 in experiment [7] of 6.43 µM.

In the case of `Cc1ccccc1OCC(O)CO` (stereo not drawn) [MEPHENESIN], the half-maximal activity concentration (AC50) is over 30 µM in [1]; over 30 µM in [2]; over 30 µM in experiment [3]; over 30 µM in [8]; over 10 µM in experiment [4]; over 30 µM in experiment [5]. For the same molecule, the half-maximal activity concentration (AC50) in experiment [6] and in experiment [7] was over 30 µM throughout.

`CCC(C)(C)c1ccc(CC(C)CN2C[C@@H](C)O[C@@H](C)C2)cc1` (stereo partly drawn) [AMOROLFINE]: the AC50 in experiment [1] is over 30 µM; in experiment [2] it was over 30 µM; in [3] it was over 30 µM; in [8], 22 µM; in [4] it was over 30 µM; in experiment [5] it was over 30 µM. For the same molecule, the half-maximal activity concentration (AC50) in experiment [6] and in experiment [7] was over 30 µM in each case.

As to `Cc1cc(OP(=O)(O)O)c2ccccc2c1OP(=O)(O)O` [MENADIOL SODIUM DIPHOSPHATE], the AC50 in experiment [1], in experiment [2], in experiment [3], in experiment [8], in [4] and in experiment [5] was over 30 µM in each case. Also, the AC50 in experiment [6] and in experiment [7] was over 30 µM each time.

`CN(C)CC/C=C1\c2ccccc2CSc2ccccc21` [DOTHIEPIN]: the AC50 in [9], in experiment [10] and in experiment [11] was over 30 µM throughout.

With `Cc1cc(C)c(NC(=O)CN(CC(=O)O)CC(=O)O)c(C)c1Br` [MEBROFENIN], the AC50 in [1], in experiment [2], in experiment [3], in experiment [8], in experiment [9] and in [4] was over 30 µM each time. Also, the concentration at half-maximal activity (AC50) in experiment [5], in experiment [11], in experiment [6] and in experiment [7] was over 30 µM in each case.

Turning to `C[S+](CC[C@H](N)C(=O)[O-])C[C@H]1O[C@@H](n2cnc3c(N)ncnc32)[C@H](O)[C@@H]1O` (stereo partly drawn) [ADEMETIONINE], the AC50 in experiment [1], in experiment [2], in [3], in experiment [8], in experiment [4] and in experiment [5] was over 30 µM each time. The AC50 in experiment [6] and in [7] was over 30 µM throughout.

On to `C=CCCCCCCCCC(=O)O` [UNDECYLENIC ACID], for which the AC50 in experiment [1], in experiment [2], in experiment [3], in experiment [8], in experiment [4] and in experiment [5] was over 30 µM throughout. Further, the AC50 in [6] and in experiment [7] was over 30 µM throughout.

Take `CC(C)(C)C(=O)OCOC(=O)[C@@H]1N2C(=O)[C@@H](NC(=O)[C@H](N)c3ccccc3)[C@H]2SC1(C)C` [PIVAMPICILLIN]: the AC50 in experiment [1], in [2], in experiment [3], in experiment [8], in experiment [4] and in [5] was over 30 µM in each case. For the same molecule, the AC50 in experiment [6] and in [7] was over 30 µM throughout.

With `CN(C)CCc1c[nH]c2ccc(C[C@H]3COC(=O)N3)cc12` [ZOLMITRIPTAN], the half-maximal activity concentration (AC50) in experiment [9] is over 30 µM; in experiment [10], over 30 µM; in [11], over 10 µM.

Take `Cc1cc(NS(=O)(=O)c2ccc(N)cc2)nc(C)n1` [SULFISOMIDINE]: the half-maximal activity concentration (AC50) in experiment [1], in experiment [2], in experiment [3], in experiment [8], in experiment [4] and in experiment [5] was over 30 µM throughout. Moreover, the AC50 in [6] and in experiment [7] was over 30 µM in each case.

On to `CC(C)COC(=O)OCN1C(=O)CN(CCN2CC(=O)N(COC(=O)OCC(C)C)C(=O)C2)CC1=O` [SOBUZOXANE], for which the AC50 in experiment [1], in [2], in experiment [3], in [8], in experiment [4] and in [5] was over 30 µM each time. In addition, the half-maximal activity concentration (AC50) in experiment [6] and in [7] was over 30 µM in each case.

For the molecule `Clc1ccc(C(OCCN2CCCCC2)c2ccccc2)cc1` (stereo not drawn) [CLOPERASTINE], the AC50 in [1] is over 30 µM; in experiment [2], 2.72 µM; in experiment [3], 5.96 µM; in experiment [8], 1.05 µM; in [4] it was over 30 µM; in experiment [5], over 30 µM. In addition, the AC50 in experiment [6] turned out to be 6.39 µM; in [7], 1.09 µM.

Values taken from ChEMBL document CHEMBL5291721, “A preclinical secondary pharmacology resource illuminates target-adverse drug reaction associations of marketed drugs” (Nat Commun, 2023).
